Results taken from publication PMC8949503, “Radiosynthesis and Preclinical Evaluation of Bispecific PSMA/FAP Heterodimers for Tumor Imaging” (Pharmaceuticals, 2022).

Legend:
FAP = target: T1, FAP (Homo sapiens, UniProt Q12884); assay: competitive binding to FAP on A549-FAP cells vs [18F]FAPI-42; conditions: for IC50: competition with [18F]FAPI-42, 60 min 37 °C
T1 construct: expressed in transfected cells
T1 sequence (Q12884 1-760): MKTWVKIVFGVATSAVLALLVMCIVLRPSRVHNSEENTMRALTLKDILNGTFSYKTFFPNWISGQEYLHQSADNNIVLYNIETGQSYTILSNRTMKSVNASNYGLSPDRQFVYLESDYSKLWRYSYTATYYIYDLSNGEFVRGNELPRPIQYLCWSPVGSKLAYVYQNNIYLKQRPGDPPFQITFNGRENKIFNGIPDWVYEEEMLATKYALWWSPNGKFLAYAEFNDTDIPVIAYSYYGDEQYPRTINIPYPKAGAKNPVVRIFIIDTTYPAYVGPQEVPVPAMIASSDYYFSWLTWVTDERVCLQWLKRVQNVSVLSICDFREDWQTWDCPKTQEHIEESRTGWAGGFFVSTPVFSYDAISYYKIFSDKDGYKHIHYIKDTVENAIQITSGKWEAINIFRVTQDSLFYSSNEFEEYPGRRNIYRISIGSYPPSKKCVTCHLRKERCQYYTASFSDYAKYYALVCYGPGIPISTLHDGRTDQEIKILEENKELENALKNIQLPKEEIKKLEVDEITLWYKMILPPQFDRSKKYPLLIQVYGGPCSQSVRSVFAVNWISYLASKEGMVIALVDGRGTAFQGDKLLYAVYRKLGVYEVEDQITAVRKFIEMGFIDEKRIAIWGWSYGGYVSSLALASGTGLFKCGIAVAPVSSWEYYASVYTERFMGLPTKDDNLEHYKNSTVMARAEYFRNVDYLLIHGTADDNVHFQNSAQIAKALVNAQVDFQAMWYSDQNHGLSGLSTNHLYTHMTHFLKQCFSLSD
Procedure: (§1) PSMA-positive 22Rv1 cells (purchased from Institute of Biochemistry and Cell Biology, Shanghai, China) and stably FAP-transfected A549-FAP cells (acquired using lentiviral infection) were used for the cell-based experiments. The 22Rv1 cells were cultivated in RPMI-1640 medium (Gibco) at 37 °C/5% carbon dioxide, while the A549-FAP cells were cultivated in DMEM medium. Both media were supplemented with 10% heat-inactivated fetal bovine serum (FBS) and 1% penicillin/streptomycin (Gibco). Puromycin (1 µg/mL) was also added to the media to maintain FAP expression.
(§2) Cells were seeded in 12-well plates 2 days in advance to achieve a final confluence of approximately 80–90% (4–5 × 10^5 cells/well). The medium was displaced by 1 mL fresh medium without FBS. The method of cell studies was similar to a method reported previously. For the competitive binding experiments, cells were incubated with the known radiotracers ([^18F]FAPI-42 for the FAP receptor and [^18F]AlF-PSMA-BCH for PSMA) in the presence of 7 different concentrations (10^−5–10^−11 M) of the corresponding unlabeled heterodimers or corresponding monomer and incubated for 60 min at 37 °C. In all experiments, the cells were washed twice with PBS, lysed with 1 M NaOH, and counted using a γ-counter. IC50 values were calculated by fitting the data using a nonlinear regression algorithm (implemented in SPSS). For the radioligand binding studies, the cells were incubated for 5, 15, 30, 60, or 120 min at 37 °C after the addition of the heterodimer or corresponding monomeric radiotracer radiotracers. The blocking experiments were determined by adding the corresponding competitors (4.4 μM 2-PMPA for 22Rv1 cells and 2.3 μM DOTA-FAPI-04 for A549-FAP cells). Radioactivity was measured using a γ-counter, normalized to 1 million cells (1 mio cells), and calculated as the percentage of the applied dose (%ID/1 mio cells). For the internalization experiments, the cells were incubated with the radiolabeled compound for 60 min, washed twice with 1 mL PBS, and then incubated for 10 min with 1 mL glycine HCl (1 M, pH 2.2) to detach the extracellular bound tracer. Next, the cells were washed with PBS (2.0 mL) and lysed with 1 M NaOH (1.5 mL). The radioactivity of the acid wash solution (extracellularly bound tracer) and cell lysate (internalized tracer) was assessed separately using a γ-counter. For the efflux experiments, the radioactive medium was removed after 60 min incubation and replaced with non-radioactive medium. At predetermined time points of 15, 30, 60, and 120 min, the cells were washed with 1.0 mL PBS three times and then lysed. The radioactivity of the remaining cells was assessed using a γ-counter. Each experiment was conducted three times with three or four replicates per independent experiment.

PSMA = target: T2, PSMA (Homo sapiens, UniProt Q04609); assay: competitive binding to PSMA on 22Rv1 cells vs [18F]AlF-PSMA-BCH; conditions: for IC50: competition with [18F]AlF-PSMA-BCH, 60 min 37 °C
T2 construct: PSMA-positive 22Rv1 cells; host or cells: 22Rv1 cells
Procedure: as §1, §2

[1] = system: A549-FAP tumor-bearing nude mice; assay: tissue biodistribution and blocking in A549-FAP tumor-bearing nude mice; format: in vivo; conditions: 1 h p.i.
Procedure: (§3) For the biodistribution and micro-PET imaging studies, male BALB/c nude mice (6–8 weeks) were subcutaneously inoculated with 1 × 10^7 22Rv1 or 5 × 10^6 A549-FAP cells in the right shoulder. Mice were imaged or used in the biodistribution studies when the tumor reached 5–10 mm in diameter.
(§4) Mice bearing 22Rv1 or A549-FAP (n = 4 in each group) tumors were euthanized 60 min after intravenous administration of each tracer (740–1480 KBq/mouse). In the blocking group, the same experiment was conducted by co-injecting 50 μg of 2-PMPA for mice bearing 22Rv1 tumors or 50 μg of DOTA-FAPI-04 for mice bearing A549-FAP tumors. The organs of interest and tumors were quickly dissected and weighed. Radioactivity was assessed using a γ-counter and calculated as the percentage injected dose per gram (%ID/g).

[2] = system: 22Rv1 tumor-bearing nude mice; assay: tissue biodistribution and blocking in 22Rv1 tumor-bearing nude mice; format: in vivo; conditions: 1 h p.i.
Procedure: as §3, §4

T2 sequence (Q04609 whole entry): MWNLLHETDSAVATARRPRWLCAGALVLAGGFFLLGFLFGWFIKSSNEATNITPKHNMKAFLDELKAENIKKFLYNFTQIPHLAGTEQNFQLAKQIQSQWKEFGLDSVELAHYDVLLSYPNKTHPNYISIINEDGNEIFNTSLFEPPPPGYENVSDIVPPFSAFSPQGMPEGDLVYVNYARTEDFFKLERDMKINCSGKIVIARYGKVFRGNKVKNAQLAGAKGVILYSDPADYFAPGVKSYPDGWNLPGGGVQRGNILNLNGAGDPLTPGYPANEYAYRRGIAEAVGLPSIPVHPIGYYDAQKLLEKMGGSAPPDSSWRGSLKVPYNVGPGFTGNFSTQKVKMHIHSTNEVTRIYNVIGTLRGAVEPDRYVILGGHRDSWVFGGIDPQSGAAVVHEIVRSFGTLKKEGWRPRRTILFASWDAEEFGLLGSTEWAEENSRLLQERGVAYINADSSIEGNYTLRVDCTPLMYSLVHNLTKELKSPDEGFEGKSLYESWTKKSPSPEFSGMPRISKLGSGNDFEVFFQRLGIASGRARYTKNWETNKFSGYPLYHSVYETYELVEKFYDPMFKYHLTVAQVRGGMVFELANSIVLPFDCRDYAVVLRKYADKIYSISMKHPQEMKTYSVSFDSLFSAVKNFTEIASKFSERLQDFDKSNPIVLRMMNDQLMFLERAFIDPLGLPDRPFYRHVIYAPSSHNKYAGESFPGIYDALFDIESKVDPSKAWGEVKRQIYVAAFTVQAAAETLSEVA

Structure (SMILES): N#C[C@@H]1CC(F)(F)CN1C(=O)CNC(=O)c1ccnc2ccc(OCCCN3CCN(C(=O)CCC(=O)NCCCC[C@H](NC(=O)CN4CCN(CC(=O)O)CCN(CC(=O)O)CC4)C(=O)NCC4CCC(C(=O)N[C@H](Cc5ccc6ccccc6c5)C(=O)NCCCC[C@H](NC(=O)N[C@@H](CCC(=O)O)C(=O)O)C(=O)O)CC4)CC3)cc12 (stereo partly drawn) [NOTA-PSMA-FAPI-02]
- fold higher in potency than the monomer NOTA-FAPI-42 (FAP): ~3 fold
- IC50 (FAP): 5.8 nM
- fold less potent than the monomer NOTA-PSMA-BCH (PSMA): ~4 fold
- IC50 (PSMA): 9.8 nM

Structure (SMILES): N#C[C@@H]1CC(F)(F)CN1C(=O)CNC(=O)c1ccnc2ccc(OCCCN3CCN(C(=O)CN4CCN5CCN(CC4)CC(=O)[O][Al]([F])[O]C(=O)C5)CC3)cc12 [[^18F]FAPI-42, reference compound]
- A549-FAP tumor uptake [1]: 5.25 ± 0.27 %ID/g
- Blood uptake [1]: 1.52 ± 0.22 %ID/g
- Bone uptake [1]: 7.29 ± 1.52 %ID/g
- Brain uptake [1]: 0.10 ± 0.01 %ID/g
- Gall bladder uptake [1]: 10.58 ± 0.83 %ID/g
- Heart uptake [1]: 0.76 ± 0.09 %ID/g
- Kidney uptake [1]: 1.86 ± 0.11 %ID/g
- Liver uptake [1]: 0.83 ± 0.19 %ID/g
- Lung uptake [1]: 0.96 ± 0.11 %ID/g
- Muscle uptake [1]: 1.86 ± 0.32 %ID/g
- Small intestine uptake [1]: 2.85 ± 0.91 %ID/g
- Spleen uptake [1]: 0.64 ± 0.04 %ID/g
- Stomach uptake [1]: 0.56 ± 0.03 %ID/g

Structure (SMILES): N#C[C@@H]1CC(F)(F)CN1C(=O)CNC(=O)c1ccnc2ccc(OCCCN3CCN(C(=O)CN4CCN(CC(=O)O)CCN(CC(=O)O)CC4)CC3)cc12 [NOTA-FAPI-42, reference compound]
- IC50 (FAP): 14.5 nM

Structure (SMILES): O=C(O)CC[C@H](NC(=O)N[C@@H](CCCCNC(=O)[C@@H](Cc1ccc2ccccc2c1)NC(=O)C1CCC(CNC(=O)CN2CCN(CC(=O)O)CCN(CC(=O)O)CC2)CC1)C(=O)O)C(=O)O (stereo partly drawn) [NOTA-PSMA-BCH, reference compound]
- IC50 (PSMA): 2.5 nM

Structure (SMILES): O=C(O)CC[C@H](NC(=O)N[C@@H](CCCCNC(=O)[C@@H](Cc1ccc2ccccc2c1)NC(=O)C1CCC(CNC(=O)CN2CCN3CCN(CC2)CC(=O)[O][Al]([18F])[O]C(=O)C3)CC1)C(=O)O)C(=O)O (stereo partly drawn) [[^18F]AlF-PSMA-BCH]
- 22Rv1 tumor* uptake [2]: 6.44 ± 1.78 %ID/g
- Blood uptake [2]: 0.56 ± 0.19 %ID/g
- Bone uptake [2]: 0.84 ± 0.39 %ID/g
- Brain uptake [2]: 0.14 ± 0.04 %ID/g
- Gall bladder uptake [2]: 6.62 ± 4.25 %ID/g
- Heart uptake [2]: 0.45 ± 0.10 %ID/g
- Kidney* uptake [2]: 66.10 ± 18.80 %ID/g
- Liver uptake [2]: 0.47 ± 0.03 %ID/g
- Lung uptake [2]: 0.86 ± 0.25 %ID/g
- Muscle uptake [2]: 0.31 ± 0.10 %ID/g
- Small intestine uptake [2]: 0.78 ± 0.12 %ID/g
- Spleen uptake [2]: 1.33 ± 0.54 %ID/g
- Stomach uptake [2]: 0.41 ± 0.05 %ID/g

Structure (SMILES): N#C[C@@H]1CC(F)(F)CN1C(=O)CNC(=O)c1ccnc2ccc(OCCCC(=O)NCCCC[C@H](NC(=O)CN3CCN(CC(=O)O)CCN(CC(=O)O)CC3)C(=O)NCC3CCC(C(=O)N[C@H](Cc4ccc5ccccc5c4)C(=O)NCCCC[C@H](NC(=O)N[C@@H](CCC(=O)O)C(=O)O)C(=O)O)CC3)cc12 (stereo partly drawn) [NOTA-PSMA-FAPI-01]
- fold higher in potency than the monomer NOTA-FAPI-42 (FAP): approximately 9 fold
- IC50 (FAP): 1.7 nM
- fold less potent than the monomer NOTA-PSMA-BCH (PSMA): approximately 13 fold
- IC50 (PSMA): 33.7 nM
